Like-named read-outs stand apart in the source and are kept apart here. Each block holds one compound with its values, some of them ahead of it.
Legend:
[1] = Storage and handling stability of the halonium reagents; format: physicochemical
[2] = Solubility of the halonium reagents in organic solvents; format: physicochemical
[3] = test system: reverse transcriptases of the Human Immunodeficiency Virus; settings: published indications, refs 7c, 7d, cited from earlier work

stable for ([1]; ambient temperature, enclosed vial): at least 1 week | stable for ([1]; −20° C.): a year or more | solubility ([2]; acetone, methanol, ethanol, THF, reacts with these solvents): soluble | solubility ([2]; ambient temperature, CH2Cl2, 1,2-dichloroethane, chloroform, toluene): moderately to slightly soluble | solubility ([2]; ambient temperature, MeNO2, EtNO2, MeCN, DMSO, DMF, EtOAc): fully soluble | solubility ([2]; ambient temperature, benzene, hexanes, pentane): insoluble | solubility ([2]; several organic solvents): good solubility
Structure (SMILES): CC[S+](Br)CC [BDSB, bromodiethylsulfonium bromopentachloroantimonate]

stable for ([1]; −20° C.): at least several months
Structure (SMILES): CC[S+](Cl)CC [CDSC, Chlorodiethylsulfonium hexachloroantimonate]

Structure (SMILES): CC1=CC[C@H]2C(C)(C)[C@@H](Br)CC[C@]2(C)[C@@H]1Cc1cc(O)c(CC(=O)O)cc1O [peyssonoic acid A]
inhibitor of the reverse transcriptases of the Human Immunodeficiency Virus [3]: possessed such activity

Structure (SMILES): C=C1CC[C@H]2C(C)(C)[C@@H](Br)CC[C@]2(C)[C@@H]1Cc1cc(O)c(C=O)cc1O [peyssonol A]
inhibitor of the reverse transcriptases of the Human Immunodeficiency Virus [3]: allosteric inhibitor of the reverse transcriptases | inhibitor of the reverse transcriptases of the Human Immunodeficiency Virus ([3]; listed as peysonnol A): possessed such activity
